Patent US20080207573A1, “COMPOUNDS FOR TREATING VIRAL INFECTIONS” (priority 2006, published 2008)
pEC50, pIC50: −log10 of the molar value. Like-named read-outs stand apart in the source and are kept apart here.

Experiments:
[1] = tested on: HIV-1 laboratory strain, NL4-3; assay: MT-4 Cytoprotection Assay (protection from HIV-induced cytopathic effect, WST-1 readout); assay type: cell-based
Experimental: MT-4 Cytoprotection Assay
(§1) The HTLV-1 transformed T cell line, MT-4, is highly susceptible to HIV-1 infection. Anti-HIV-1 agents were evaluated in this target cell line by protection from the HIV-induced cytopathic effect. In this assay, viability of both HIV-1 and mock-infected cells was assessed in a […] assay that monitors the ability of metabolically-active cells to reduce the tetrazolium salt WST-1. Cytoprotection by antiviral compounds is indicated by the positive readout of increased WST-1 cleavage.
(§2) Briefly, exponentially growing MT-4 cells were mock-infected or batch-infected with the HIV-1 laboratory strain, NL4-3, at a multiplicity of infection of 0.0005. Following a two hour infection, the cells were washed to remove unbound virus and plated in the presence of increasing concentrations of compound. After four days incubation, cytoprotection in the infected cells and compound toxicity in mock-infected cells were analyzed using the WST-1 assay.

[2] = Compound toxicity in mock-infected MT-4 cells (WST-1 assay); assay type: cell-based; settings: human, read-out: TC50 (concentration of compound that results in death of 50% of the host cells)
Experimental: as §1, §2

[3] = tested on: HIV-1 laboratory strain, NL4-3; assay: MT-4 Cytoprotection Assay (protection from HIV-induced cytopathic effect, WST-1 readout); assay type: cell-based; settings: Human immunodeficiency virus 1, NL43; Table 6, printed in the MT4 IC50 column but marked MT4 assay
[4] = Human Liver Microsome Assay (metabolic stability); assay type: in vitro ADME; settings: human liver microsomes 0.5 mg/mL, test article 1 μM; for half-life at 1 μM: pH 7.4, read-out: Metabolic Stability in Human liver Microsomes T1/2
Experimental: Human Liver Microsome Assay
The microsomal fraction of liver homogenates contains endoplasmic reticulum derived cytochrome P450 enzymes that constitute the major phase I drug metabolizing enzymes. Briefly, to aid prediction of the in vivo rate of clearance of a dosed test article, an in vitro incubation containing human liver microsomes (0.5 mg/mL final protein concentration) and test article (1 μM incubation concentration) in the presence and absence of the necessary cofactor NADPH (1 mM incubation concentration) is conducted. The incubation is performed in a buffered aqueous system (100 mM potassium phosphate, pH 7.4). The concentration of the parent compound is determined using liquid chromatography coupled with tandem mass spectrometry and reported as percent remaining from a zero minute concentrations.

[5] = tested on: HIV-1IIIB; assay: PBMC Drug Susceptibility Assay (HIV-1 p24 in supernatant); assay type: cell-based; settings: Human immunodeficiency virus 1, PBMC, 168 h; Table 6; HIV-1IIIB-infected human PBMCs, seven days
Source text: PBMC Drug Susceptibility Assay
Human peripheral blood mononuclear cells (PBMCS) were used to test compound antiviral activity as an indicator for clinical efficacy. PBMCs were isolated from two donors using a Ficoll-Hypaque density gradient, pooled and stimulated with PHA-L for three days. After stimulation, the cells were washed and maintained in culture medium containing IL-2. The stimulated cells were then mock-infected or batch-infected with the strain HIV-1IIIB at MOI 0.01 for one hour. Cells (unwashed) were then plated in the presence of increasing concentrations of compound and incubated for seven days. […] Compound toxicity in mock-infected cells was analyzed using the WST-1 assay.

[6] = Human immunodeficiency virus 1, NL43, MT4, 96 h, MT-4 cells, HIV-1 NL4-3, four days, read-out: EC50 (concentration of compound that reduces the virus induced cytopathic effect by 50% (MT-4))
[7] = Human immunodeficiency virus 1, NL43, list of representative compounds, read-out: EC50 of less than about 100 nm (representative compounds)

Row | SMILES | pEC50 [1, 6] | CC50 at 4 days [2] [nM] | pEC50 [1, 7] | pIC50 [3] | Metabolic Stability in Human liver Microsomes % compound remaining at 40 minutes [4] [%] | half-life at 1 μM [4] [min] | pIC50 [5]
1 | C=C(C)[C@@H]1CC[C@]2(C(=O)NCc3ccncc3)CC[C@]3(C)[C@H](CC[C@@H]4[C@@]5(C)CC[C@H](O)C(C)(C)[C@@H]5CC[C@]43C)[C@@H]12 [Compound 46] | ~5.07 | > 10000 |  |  |  |  | 
2 | C=C(C)[C@@H]1CC[C@]2(C(=O)NCCc3ccc(OC)cc3)CC[C@]3(C)[C@H](CC[C@@H]4[C@@]5(C)CC[C@H](OC(=O)CC(C)(C)C(=O)O)C(C)(C)[C@@H]5CC[C@]43C)[C@@H]12 [Compound 70] | ~8.54 | > 10000 | > 7.00 |  |  |  | 
3 | C=C(C)[C@@H]1CC[C@]2(C(=O)NCc3ccc(C(=O)O)cc3)CC[C@]3(C)[C@H](CC[C@@H]4[C@@]5(C)CC[C@H](OC(=O)CC(C)(C)C(=O)O)C(C)(C)[C@@H]5CC[C@]43C)[C@@H]12 [Compound 71] | ~6.90 | ~7700 |  |  |  |  | 
4 | C=C(C)[C@@H]1CC[C@]2(C(=O)NCc3ccccc3C(=O)O)CC[C@]3(C)[C@H](CC[C@@H]4[C@@]5(C)CC[C@H](OC(=O)CC(C)(C)C(=O)O)C(C)(C)[C@@H]5CC[C@]43C)[C@@H]12 [Compound 73] | ~8.09 | ~6300 | > 7.00 |  |  |  | 
5 | C=C(C)[C@@H]1CC[C@]2(C(=O)NCc3cccnc3)CC[C@]3(C)[C@H](CC[C@@H]4[C@@]5(C)CC[C@H](OC(=O)CC(C)(C)C(=O)O)C(C)(C)[C@@H]5CC[C@]43C)[C@@H]12 [Compound 76] | ~7.96 | > 10000 | > 7.00 |  |  |  | 
6 | C=C(C)[C@@H]1CC[C@]2(C(=O)NCc3ccccn3)CC[C@]3(C)[C@H](CC[C@@H]4[C@@]5(C)CC[C@H](OC(=O)CC(C)(C)C(=O)O)C(C)(C)[C@@H]5CC[C@]43C)[C@@H]12 [Compound 83] |  |  | > 7.00 | 8.34 | 11 | < 10 | 
7 | C=C(C)[C@@H]1CC[C@]2(C(=O)NC3(c4ccccn4)CC3)CC[C@]3(C)[C@H](CC[C@@H]4[C@@]5(C)CC[C@H](OC(=O)CC(C)(C)C(=O)O)C(C)(C)[C@@H]5CC[C@]43C)[C@@H]12 [Compound 121] |  |  | > 7.00 |  | 42 | 30 | 7.74
